Source: US10889569B2, “Condensed ring group azacyclobutyl triazole derivative, preparation method therefor and use thereof in medicine” (Jiangsu Hengrui Medicine Co., Ltd., priority 2016, dated 2021)

Tests used:
[1] = molecular target: human V1aR (Homo sapiens (Human), UniProt P37288); assay: Inhibition activity on human V1aR (Fluo-4 calcium assay, HEK293/human V1aR stably transfected cells); format: cell-based; settings: vasopressin 3 nM
Description: The inhibition effect of the compounds of the present invention on the activity of human V1 aR protein expressed in HEK293/human V1aR stably transfected cells was determined by the following experimental method:
The pcDNA3.1-V1aR plasmid was transferred into HEK293 cells with the Lipofectamine® 3000 transfection reagent; G418 was added on the next day to screen, and monoclonal cell lines were selected.
(§1) HEK293/human V1aR stably transfected cells were inoculated in a 96-well plate with an inoculation density of 25,000 cells/well one day in advance. On the next day, a loading buffer containing Fluo-4 dye was formulated using the reagents in the Fluo-4 NW calcium assay kit, and the culture medium was then removed; 100 μl of the loading buffer containing Fluo-4 dye were added to each well, and the plate was incubated at 37° C. for 30 minutes. After that, the plate was moved to room temperature and equilibrated for 10 minutes. The compounds were formulated at 10^6, 10^5, 10^4, 10^3, 10^2 and 10^1 nM. 1 μl of the compounds in each concentration was added to each well, and the plate was incubated at room temperature for 10 minutes. 50 μl of vasopressin polypeptide (3 nM) were automatically added by the machine, and the values were immediately detected at 494/516 nM by the flexstation 3 microplate reader. IC50 values of the compounds were calculated by Graphpad prism software using fluorescence signals corresponding to different concentrations.
The inhibition activity of the compounds of the present invention on human V1aR was determined by the above test, and the obtained IC50 values are shown in Table 2.

[2] = molecular target: human OTR (Homo sapiens, UniProt P30559); assay: Inhibition activity on human OTR (Fluo-4 calcium assay, HEK293/human OTR stably transfected cells); format: cell-based; settings: oxytocin 3 nM
Description: The inhibition effect of the compounds of the present invention on the activity of human OTR protein expressed in HEK293/human OTR stably transfected cells was determined by the following experimental method:
The pcDNA3.1-hOTR plasmid was transferred into HEK293 cells with the Lipofectamine® 3000 transfection reagent; G418 was added on the next day to screen, and monoclonal cell lines were selected.
as §1, with “OTR” for “V1aR”, “oxytocin” for “vasopressin”
The inhibition activity of the compounds of the present invention on human OTR was determined by the above test, and the obtained IC50 values are shown in Table 1.

[3] = Pharmacokinetics assay in rats after intragastrical administration; format: in vivo, SD rats; settings: Sprague-Dawley, rat, plasma, po, 30 mg/kg, intragastric, male rats; for Vd/F: read-out: Apparent distribution volume Vz/F; for AUC: read-out: Area under curve AUC; for CL/F: read-out: Clearance CLz/F; for half-life: read-out: Half-life T1/2 (converted); for Cmax: read-out: Plasma concentration Cmax; for MRT: read-out: Residence time MRT
Description: Male SD rats were used as test animals. The drug concentration in plasma at different time points was determined by LC/MS/MS method after intragastrical administration of the compounds of Examples 2, 17, 34, 37, 38, 39 and 43 to rats. The pharmacokinetic behavior of the compounds of the present invention was studied and evaluated in rats.
Twenty-one healthy adult male Sprague-Dawley (SD) rats were purchased from Shanghai Jiesijie Laboratory Animal Co., LTD, with Certificate No.: SCXK (Shanghai) 2013-0006, and equally divided into 7 groups (3 rats per group).
A certain amount of the test compound was weighed, and added with 2.5% by volume of DMSO and 97.5% by volume of 10% solutol HS-15 to formulate a […] colorless, clear and transparent solution.
After an overnight fast, SD rats were administered intragastrically the test compounds at an administration dosage of 30.0 mg/kg and an administration volume of 10.0 mL/kg.
The rats were intragastrically administered the compounds of Examples 2, 17, 34, 37, 38, 39 and 43. 0.2 mL of blood was taken from the orbital sinus before administration and at 0.5, 1.0, 2.0, 4.0, 6.0, 8.0, 11.0 and 24.0 hours after administration. The samples were stored in heparinized tubes, and centrifuged for 10 minutes at 4° C. at 3500 rpm to separate the plasma. The plasma samples were stored at −20° C. The rats were fed 2 hours after administration.
The content of the test compounds in the plasma of rats after intragastrical administration of the test compounds at different concentrations was determined: 50 μL of rat plasma at each time after administration was taken, added with 50 μL of the internal standard solution of camptothecin (100 ng/mL) and 150 μL of acetonitrile, vortex-mixed for 5 minutes, and centrifuged for 10 minutes (4000 rpm). 3 μL of the supernatant was taken from the plasma samples for LC/MS/MS analysis.

Sequence of human V1aR (P37288 whole entry): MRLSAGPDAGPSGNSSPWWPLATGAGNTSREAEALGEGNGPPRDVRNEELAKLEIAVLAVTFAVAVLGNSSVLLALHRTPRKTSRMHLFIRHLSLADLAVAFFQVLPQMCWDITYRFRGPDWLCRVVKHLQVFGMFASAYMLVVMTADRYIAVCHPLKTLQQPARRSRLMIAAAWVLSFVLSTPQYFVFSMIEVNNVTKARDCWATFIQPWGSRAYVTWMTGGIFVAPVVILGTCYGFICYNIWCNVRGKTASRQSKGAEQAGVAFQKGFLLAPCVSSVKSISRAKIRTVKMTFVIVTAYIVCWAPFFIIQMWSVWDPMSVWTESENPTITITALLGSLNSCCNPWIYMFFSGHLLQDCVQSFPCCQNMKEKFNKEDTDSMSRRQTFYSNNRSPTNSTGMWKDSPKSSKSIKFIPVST

COCc1nnc(N2CC(n3cc(Cl)c4cc(F)ccc43)C2)n1-c1ccc2c(c1)OCO2 [Example 3, 1-(1-(4-(Benzo[d][1,3]dioxolan-5-yl)-5-(methoxymethyl)-4H-1,2,4-triazol-3-yl)azetidin-3-yl)-3-chloro-5-fluoro-1H-indole]
IC50 [1]: 7000 nM

CCOCc1nnc(N2CC(n3cc(Cl)c4cc(F)ccc43)C2)n1-c1ccc(OC)nc1 [Example 4, 3-Chloro-1-(1-(5-(ethoxymethyl)-4-(6-methoxypyridin-3-yl)-4H-1,2,4-triazol-3-yl)azetidin-3-yl)-5-fluoro-1H-indole]
IC50 [1]: 2300 nM

CCOCc1nnc(N2CC(n3cc(C)c4cc(F)ccc43)C2)n1-c1ccc(OC)nc1 [Example 5, 1-(1-(5-(Ethoxymethyl)-4-(6-methoxypyridin-3-yl)-4H-1,2,4-triazol-3-yl)azetidin-3-yl)-5-fluoro-3-methyl-1H-indole]
IC50 [2]: 188 nM

COc1ccc(-n2c(C)nnc2N2CC(n3cc(C)c4cc(F)ccc43)C2)cn1 [Example 6, 5-Fluoro-1-(1-(4-(6-methoxypyridin-3-yl)-5-methyl-4H-1,2,4-triazol-3-yl)azetidin-3-yl)-3-methyl-1H-indole]
IC50 [1]: 4700 nM

COCc1nnc(N2CC(n3cc(C(F)(F)F)c4cc(F)ccc43)C2)n1-c1ccc(OC)nc1 [Example 7, 5-Fluoro-1-(1-(5-(methoxymethyl)-4-(6-methoxypyridin-3-yl)-4H-1,2,4-triazol-3-yl)azetidin-3-yl)-3-(trifluoromethyl)-1H-indole]
IC50 [1]: 6700 nM

COCc1nnc(N2CC(n3cc(C#N)c4cc(F)ccc43)C2)n1-c1ccc(OC)nc1 [Example 13, 5-Fluoro-1-(1-(5-(methoxymethyl)-4-(6-methoxypyridin-3-yl)-4H-1,2,4-triazol-3-yl)azetidin-3-yl)-1H-indole-3-carbonitrile]
IC50 [1]: 11900 nM

COCc1nnc(N2CC(N3CCCc4c(F)cccc43)C2)n1-c1ccc(OC)nc1 [Example 19, 5-Fluoro-1-(1-(5-(methoxymethyl)-4-(6-methoxypyridin-3-yl)-4H-1,2,4-triazol-3-yl)azetidin-3-yl)-1,2,3,4-tetrahydroquinoline]
IC50 [2]: 41 nM | IC50 [1]: 2000 nM

COc1ccc(-n2c(C)nnc2N2CC(N3CCCc4c(F)cccc43)C2)cn1 [Example 20, 5-Fluoro-1-(1-(4-(6-methoxypyridin-3-yl)-5-methyl-4H-1,2,4-triazol-3-yl)azetidin-3-yl)-1,2,3,4-tetrahydroquinoline]
IC50 [2]: 104 nM | IC50 [1]: 3100 nM

COCc1nnc(N2CC(N3CCOc4c(F)cccc43)C2)n1-c1ccc(OC)nc1 [Example 22, 8-Fluoro-4-(1-(5-(methoxymethyl)-4-(6-methoxypyridin-3-yl)-4H-1,2,4-triazol-3-yl)azetidin-3-yl)-3,4-dihydro-2H-benzo[b][1,4]oxazine]
IC50 [2]: 177 nM | IC50 [1]: 7500 nM

COCc1nnc(N2CC(n3ccc4cc(F)ccc43)C2)n1-c1ccc(OC)nc1 [Example 25, 5-Fluoro-1-(1-(5-(methoxymethyl)-4-(6-methoxypyridin-3-yl)-4H-1,2,4-triazol-3-yl)azetidin-3-yl)-1H-indole]
IC50 [2]: 23 nM

COCc1nnc(N2CC(N3CCCc4cc(F)ccc43)C2)n1-c1ccc2c(c1)OCO2 [Example 28, 1-(1-(4-(Benzo[d][1,3]dioxolan-5-yl)-5-(methoxymethyl)-4H-1,2,4-triazol-3-yl)azetidin-3-yl)-6-fluoro-1,2,3,4-tetrahydroquinoline]
IC50 [2]: 231 nM | IC50 [1]: 2400 nM

COc1ccc(-n2c(COC(F)F)nnc2N2CC(n3cc(C)c4cc(F)ccc43)C2)cn1 [Example 34, 1-(1-(5-((Difluoromethoxy)methyl)-4-(6-methoxypyridin-3-yl)-4H-1,2,4-triazol-3-yl)azetidin-3-yl)-5-fluoro-3-methyl-1H-indole]
IC50 [2]: 8 nM | Vd/F [3]: 17.8 ± 3.33 L/kg | AUC [3]: 5330 ± 981 ng·h/mL | CL/F [3]: 95.8 ± 16 mL/min/kg | half-life [3]: 2.16 ± 0.345 h | Cmax [3]: 1070 ± 252 ng/mL | MRT [3]: 3.84 ± 1.08 h

COc1ccc(-n2c(C(F)F)nnc2N2CC(N3CCOc4cc(F)ccc43)C2)cn1 [Example 35, 4-(1-(5-(Difluoromethyl)-4-(6-methoxypyridin-3-yl)-4H-1,2,4-triazol-3-yl)azetidin-3-yl)-7-fluoro-3,4-dihydro-2H-benzo[b][1,4]oxazine]
IC50 [2]: 181 nM | IC50 [1]: 14100 nM

COC(=O)NCc1nnc(N2CC(N3CCCc4cc(F)ccc43)C2)n1-c1ccc(OC)nc1 [Example 36, Methyl ((5-(3-(6-fluoro-3,4-dihydroquinolin-1(2H)-yl)azetidin-1-yl)-4-(6-methoxypyridin-3-yl)-4H-1,2,4-triazol-3-yl)methyl)carbamate]
IC50 [2]: 124 nM | IC50 [1]: 2100 nM

COc1ccc(-n2c(COC(F)F)nnc2N2CC(N3CCOc4cc(F)ccc43)C2)cn1 [Example 37, 4-(1-(5-((Difluoromethoxy)methyl)-4-(6-methoxypyridin-3-yl)-4H-1,2,4-triazol-3-yl)azetidin-3-yl)-7-fluoro-3,4-dihydro-2H-benzo[b][1,4]oxazine]
IC50 [2]: 4 nM | Vd/F [3]: 56.3 ± 66 L/kg | AUC [3]: 8180 ± 9850 ng·h/mL | CL/F [3]: 201 ± 223 mL/min/kg | half-life [3]: 2.95 ± 0.42 h | Cmax [3]: 1120 ± 950 ng/mL | MRT [3]: 4.9 ± 1.36 h | IC50 [1]: 1700 nM

COc1ccc(-n2c(N3CC(N4CCCc5cc(F)ccc54)C3)nnc2C(F)(F)F)cn1 [Example 39, 6-Fluoro-1-(1-(4-(6-methoxypyridin-3-yl)-5-(trifluoromethyl)-4H-1,2,4-triazol-3-yl)azetidin-3-yl)-1,2,3,4-tetrahydroquinoline]
IC50 [2]: 6 nM | Vd/F [3]: 35 ± 3.01 L/kg | AUC [3]: 3830 ± 83.7 ng·h/mL | CL/F [3]: 131 ± 2.85 mL/min/kg | half-life [3]: 3.09 ± 0.199 h | Cmax [3]: 1200 ± 68.5 ng/mL | MRT [3]: 3.61 ± 0.022 h | IC50 [1]: 2000 nM

COc1ccc(-n2c(CO)nnc2N2CC(c3cccc4cc(F)ccc34)C2)cn1 [Example 41, (5-(3-(6-Fluoronaphthalen-1-yl)azetidin-1-yl)-4-(6-methoxypyridin-3-yl)-4H-1,2,4-triazol-3-yl)methanol]
IC50 [2]: 150 nM | IC50 [1]: 9000 nM

COCc1nnc(N2CC(N3CCC(C)(C)c4cc(F)ccc43)C2)n1-c1ccc(OC)nc1 [Example 42, 6-Fluoro-1-(1-(5-(methoxymethyl)-4-(6-methoxypyridin-3-yl)-4H-1,2,4-triazol-3-yl)azetidin-3-yl)-4,4-dimethyl-1,2,3,4-tetrahydroquinoline]
IC50 [2]: 23 nM | IC50 [1]: 4500 nM
